From article doi:10.1101/2023.10.20.563248v1 (biorxiv, 2023)

Experiments:
Conditions in all cases: 1 µM; inhibitor
[1] = biological target: RET (Homo sapiens, UniProt P07949)
[2] = biological target: PAK7 (Homo sapiens, UniProt Q9P286)
[3] = biological target: ERK2 (Homo sapiens, UniProt P28482)
[4] = biological target: SRPK2 (Homo sapiens, UniProt P78362)
[5] = biological target: DMPK (Homo sapiens, UniProt Q09013)
[6] = biological target: PAK6 (Homo sapiens, UniProt Q9NQU5)
[7] = biological target: TSSK1 (Homo sapiens, UniProt Q9BXA7)
[8] = biological target: MARK2 (Homo sapiens, UniProt Q7KZI7)
[9] = biological target: GRK6 (Homo sapiens, UniProt P43250)
[10] = biological target: MARK4 (Homo sapiens, UniProt Q96L34)
[11] = biological target: FGFR3 (Homo sapiens, UniProt P22607)
Chain of FGFR3 (P22607 whole entry): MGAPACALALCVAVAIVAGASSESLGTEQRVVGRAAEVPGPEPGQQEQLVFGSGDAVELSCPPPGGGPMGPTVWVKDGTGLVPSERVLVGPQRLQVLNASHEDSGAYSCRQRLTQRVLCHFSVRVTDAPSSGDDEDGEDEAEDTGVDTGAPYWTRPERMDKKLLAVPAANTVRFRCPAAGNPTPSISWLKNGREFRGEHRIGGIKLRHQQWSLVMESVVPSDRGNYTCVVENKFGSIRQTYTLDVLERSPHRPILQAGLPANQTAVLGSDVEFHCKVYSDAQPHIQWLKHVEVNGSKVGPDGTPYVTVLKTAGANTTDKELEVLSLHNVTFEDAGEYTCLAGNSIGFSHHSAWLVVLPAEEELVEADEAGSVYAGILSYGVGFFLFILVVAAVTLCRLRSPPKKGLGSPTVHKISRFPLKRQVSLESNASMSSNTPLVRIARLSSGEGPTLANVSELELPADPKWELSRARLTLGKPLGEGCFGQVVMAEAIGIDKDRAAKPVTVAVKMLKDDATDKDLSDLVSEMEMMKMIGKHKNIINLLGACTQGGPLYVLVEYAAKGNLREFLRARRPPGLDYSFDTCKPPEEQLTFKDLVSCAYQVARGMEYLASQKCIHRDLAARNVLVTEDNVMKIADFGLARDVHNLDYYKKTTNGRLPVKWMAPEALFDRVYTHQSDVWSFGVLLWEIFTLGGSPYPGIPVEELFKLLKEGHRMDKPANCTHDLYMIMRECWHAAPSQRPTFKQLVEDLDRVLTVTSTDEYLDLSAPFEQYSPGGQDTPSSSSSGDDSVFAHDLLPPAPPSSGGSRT

[12] = biological target: CK1a (Homo sapiens, UniProt P48729)
Chain of CK1a (P48729 whole entry): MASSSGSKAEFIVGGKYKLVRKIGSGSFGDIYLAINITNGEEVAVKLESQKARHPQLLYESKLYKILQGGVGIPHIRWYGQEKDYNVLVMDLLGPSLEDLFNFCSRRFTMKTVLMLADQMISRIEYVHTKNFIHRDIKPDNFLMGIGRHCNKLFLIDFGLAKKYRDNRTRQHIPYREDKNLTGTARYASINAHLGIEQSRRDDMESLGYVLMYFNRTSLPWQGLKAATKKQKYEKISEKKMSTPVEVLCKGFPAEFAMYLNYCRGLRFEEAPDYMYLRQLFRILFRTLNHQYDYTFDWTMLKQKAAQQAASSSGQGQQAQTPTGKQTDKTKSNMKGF

[13] = biological target: ROCK2 (Homo sapiens, UniProt O75116)
[14] = biological target: PAK1 (Homo sapiens, UniProt Q13153)
[15] = biological target: AurB (Homo sapiens, UniProt Q96GD4)
[16] = biological target: ACVR1B (Homo sapiens, UniProt P36896)
[17] = biological target: EPHA4 (Homo sapiens, UniProt P54764)
[18] = biological target: PRKG1 (Homo sapiens, UniProt Q13976)
Chain of PRKG1 (Q13976 whole entry): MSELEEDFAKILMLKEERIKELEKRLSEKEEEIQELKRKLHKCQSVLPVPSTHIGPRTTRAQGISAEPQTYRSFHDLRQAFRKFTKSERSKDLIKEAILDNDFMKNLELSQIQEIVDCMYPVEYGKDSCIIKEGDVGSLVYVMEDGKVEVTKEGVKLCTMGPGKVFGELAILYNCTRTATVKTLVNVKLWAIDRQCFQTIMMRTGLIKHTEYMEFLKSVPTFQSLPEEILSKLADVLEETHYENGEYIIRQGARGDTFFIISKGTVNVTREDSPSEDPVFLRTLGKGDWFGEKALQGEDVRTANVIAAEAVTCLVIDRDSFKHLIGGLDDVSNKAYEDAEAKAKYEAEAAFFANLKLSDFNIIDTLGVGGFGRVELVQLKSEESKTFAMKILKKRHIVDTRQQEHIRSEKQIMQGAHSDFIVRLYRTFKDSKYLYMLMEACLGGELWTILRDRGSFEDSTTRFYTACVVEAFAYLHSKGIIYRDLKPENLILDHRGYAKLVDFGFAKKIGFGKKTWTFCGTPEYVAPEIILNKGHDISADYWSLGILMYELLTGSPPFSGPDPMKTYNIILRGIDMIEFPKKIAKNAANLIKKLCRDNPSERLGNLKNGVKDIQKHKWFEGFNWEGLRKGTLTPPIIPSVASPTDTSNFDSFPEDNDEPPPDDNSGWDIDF

[19] = biological target: CAMK2G (Homo sapiens, UniProt Q13555)
[20] = biological target: RPS6KA5 (Homo sapiens, UniProt O75582)
Chain of RPS6KA5 (O75582 whole entry): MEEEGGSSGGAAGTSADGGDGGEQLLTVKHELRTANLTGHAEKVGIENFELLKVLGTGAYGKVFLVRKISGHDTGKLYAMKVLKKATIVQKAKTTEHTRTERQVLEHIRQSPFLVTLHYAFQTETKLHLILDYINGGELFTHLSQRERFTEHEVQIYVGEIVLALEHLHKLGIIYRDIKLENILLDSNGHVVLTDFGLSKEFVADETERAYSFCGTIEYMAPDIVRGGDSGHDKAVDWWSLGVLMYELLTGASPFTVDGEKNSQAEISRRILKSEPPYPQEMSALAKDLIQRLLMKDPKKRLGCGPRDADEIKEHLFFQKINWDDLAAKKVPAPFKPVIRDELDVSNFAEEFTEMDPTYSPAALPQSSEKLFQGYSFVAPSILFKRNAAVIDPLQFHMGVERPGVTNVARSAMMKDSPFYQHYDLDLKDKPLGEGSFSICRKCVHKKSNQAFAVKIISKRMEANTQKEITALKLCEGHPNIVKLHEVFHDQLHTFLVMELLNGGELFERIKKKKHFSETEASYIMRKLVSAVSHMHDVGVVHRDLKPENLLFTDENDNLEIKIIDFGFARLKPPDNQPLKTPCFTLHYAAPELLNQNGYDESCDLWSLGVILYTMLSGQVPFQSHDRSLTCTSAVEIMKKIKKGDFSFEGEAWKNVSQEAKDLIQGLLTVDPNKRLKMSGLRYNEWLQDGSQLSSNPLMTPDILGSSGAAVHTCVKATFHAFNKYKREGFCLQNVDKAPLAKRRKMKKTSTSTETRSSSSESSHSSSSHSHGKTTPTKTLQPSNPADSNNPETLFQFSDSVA

[21] = biological target: PIM3 (Homo sapiens, UniProt Q86V86)
[22] = biological target: SRMS (Homo sapiens, UniProt Q9H3Y6)
[23] = biological target: MAP3K10 (Homo sapiens, UniProt Q02779)
[24] = biological target: EGFR (Homo sapiens, UniProt P00533)
[25] = biological target: CDK5/p35NCK (Homo sapiens, UniProt Q00535)
[26] = biological target: DYRK1A (Homo sapiens, UniProt Q13627)
[27] = biological target: CK1g3 (Homo sapiens, UniProt Q9Y6M4)
[28] = biological target: SYK (Homo sapiens, UniProt P43405)
[29] = biological target: TLK1 (Homo sapiens, UniProt Q9UKI8)
[30] = biological target: GRK7 (Homo sapiens, UniProt Q8WTQ7)
Chain of GRK7 (Q8WTQ7 whole entry): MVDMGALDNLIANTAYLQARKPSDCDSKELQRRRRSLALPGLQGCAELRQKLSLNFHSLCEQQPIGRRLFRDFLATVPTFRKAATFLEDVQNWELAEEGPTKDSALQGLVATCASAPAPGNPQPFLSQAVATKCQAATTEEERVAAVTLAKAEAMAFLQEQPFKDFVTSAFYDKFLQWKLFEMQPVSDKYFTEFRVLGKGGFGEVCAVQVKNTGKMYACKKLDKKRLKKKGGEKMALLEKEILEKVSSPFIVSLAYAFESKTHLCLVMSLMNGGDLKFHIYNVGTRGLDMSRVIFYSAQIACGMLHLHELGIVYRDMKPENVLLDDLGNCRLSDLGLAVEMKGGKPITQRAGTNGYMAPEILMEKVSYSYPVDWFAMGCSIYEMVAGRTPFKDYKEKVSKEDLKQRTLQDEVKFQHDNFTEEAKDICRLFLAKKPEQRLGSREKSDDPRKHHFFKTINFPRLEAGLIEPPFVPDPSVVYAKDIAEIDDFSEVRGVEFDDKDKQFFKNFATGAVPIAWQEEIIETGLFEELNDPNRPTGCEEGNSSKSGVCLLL

[31] = biological target: TNK1 (Homo sapiens, UniProt Q13470)

Chain of SRPK2 (P78362 whole entry): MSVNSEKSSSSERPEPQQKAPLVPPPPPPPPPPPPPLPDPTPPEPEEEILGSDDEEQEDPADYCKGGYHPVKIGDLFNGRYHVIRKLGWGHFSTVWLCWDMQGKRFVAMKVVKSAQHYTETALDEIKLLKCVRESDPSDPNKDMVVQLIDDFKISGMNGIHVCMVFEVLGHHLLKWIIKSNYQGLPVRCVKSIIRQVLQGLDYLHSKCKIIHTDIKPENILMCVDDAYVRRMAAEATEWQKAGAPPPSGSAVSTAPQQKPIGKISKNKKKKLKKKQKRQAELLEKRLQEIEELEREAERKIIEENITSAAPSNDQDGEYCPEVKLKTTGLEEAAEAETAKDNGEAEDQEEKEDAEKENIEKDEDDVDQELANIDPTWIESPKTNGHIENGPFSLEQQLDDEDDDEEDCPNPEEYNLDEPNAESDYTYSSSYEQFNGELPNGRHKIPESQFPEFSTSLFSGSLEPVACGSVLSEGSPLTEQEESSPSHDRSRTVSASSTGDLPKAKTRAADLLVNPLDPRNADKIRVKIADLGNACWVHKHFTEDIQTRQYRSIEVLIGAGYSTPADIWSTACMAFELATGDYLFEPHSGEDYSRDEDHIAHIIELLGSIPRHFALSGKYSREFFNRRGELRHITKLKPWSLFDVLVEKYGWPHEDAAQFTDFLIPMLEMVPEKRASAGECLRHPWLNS
Chain of ERK2 (P28482 whole entry): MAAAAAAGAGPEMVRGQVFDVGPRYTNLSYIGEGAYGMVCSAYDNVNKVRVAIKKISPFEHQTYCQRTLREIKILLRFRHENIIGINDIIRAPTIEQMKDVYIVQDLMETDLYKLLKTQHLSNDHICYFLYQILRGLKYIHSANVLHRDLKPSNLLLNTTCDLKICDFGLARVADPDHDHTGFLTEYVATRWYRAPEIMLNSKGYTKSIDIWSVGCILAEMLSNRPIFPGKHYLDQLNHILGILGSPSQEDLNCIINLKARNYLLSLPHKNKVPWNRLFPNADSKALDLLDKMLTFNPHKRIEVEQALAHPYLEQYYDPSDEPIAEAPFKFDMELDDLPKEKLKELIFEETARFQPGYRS
Chain of PAK6 (Q9NQU5 whole entry): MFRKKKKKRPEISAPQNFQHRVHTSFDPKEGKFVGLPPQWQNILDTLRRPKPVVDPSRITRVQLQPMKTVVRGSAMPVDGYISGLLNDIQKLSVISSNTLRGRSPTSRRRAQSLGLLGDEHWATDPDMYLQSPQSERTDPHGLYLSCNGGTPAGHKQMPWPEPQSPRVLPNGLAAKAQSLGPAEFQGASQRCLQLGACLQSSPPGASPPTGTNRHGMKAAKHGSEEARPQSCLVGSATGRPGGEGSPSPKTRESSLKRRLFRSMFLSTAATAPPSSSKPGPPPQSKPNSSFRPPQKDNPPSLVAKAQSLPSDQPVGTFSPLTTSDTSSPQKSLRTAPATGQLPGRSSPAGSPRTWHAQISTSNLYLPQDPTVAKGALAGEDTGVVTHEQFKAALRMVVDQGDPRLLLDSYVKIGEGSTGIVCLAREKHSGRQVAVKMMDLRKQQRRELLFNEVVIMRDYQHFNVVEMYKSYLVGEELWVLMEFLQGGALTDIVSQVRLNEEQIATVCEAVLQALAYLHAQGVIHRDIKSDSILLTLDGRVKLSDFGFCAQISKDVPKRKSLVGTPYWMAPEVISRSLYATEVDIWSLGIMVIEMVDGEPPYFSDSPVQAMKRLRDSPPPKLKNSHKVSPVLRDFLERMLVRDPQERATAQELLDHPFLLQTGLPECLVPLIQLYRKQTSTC

O=C1NCCCCCNc2nc(c3ccccc3n2)Nc2cc1[nH]n2 [21c, (Z)-3^1H-2,5,11-triaza-1(4,2)-quinazolina-3(3,5)-pyrazolacycloundecaphan-4-one]
21c Remaining activity, percent of control [%] [1]: 122.5% | 21c Remaining activity, percent of control [%] [2]: 87.1% | 21c Remaining activity, percent of control [%] [3]: 90.7% | 21c Remaining activity, percent of control [%] [4]: 97.0% | 21c Remaining activity, percent of control [%] [5]: 94.3% | 21c Remaining activity, percent of control [%] [6]: 95.0% | 21c Remaining activity, percent of control [%] [7]: 95.8% | 21c Remaining activity, percent of control [%] [8]: 98.8% | 21c Remaining activity, percent of control [%] [9]: 87.6% | 21c Remaining activity, percent of control [%] [10]: 100.1% | 21c Remaining activity, percent of control [%] [11]: 99.8% | 21c Remaining activity, percent of control [%] [12]: 102.0% | 21c Remaining activity, percent of control [%] [13]: 89.7% | 21c Remaining activity, percent of control [%] [14]: 94.9% | 21c Remaining activity, percent of control [%] [15]: 83.9% | 21c Remaining activity, percent of control [%] [16]: 85.2% | 21c Remaining activity, percent of control [%] [17]: 67.5% | 21c Remaining activity, percent of control [%] [18]: 94.8% | 21c Remaining activity, percent of control [%] [19]: 132.6% | 21c Remaining activity, percent of control [%] [20]: 108.9% | 21c Remaining activity, percent of control [%] [21]: 88.9% | 21c Remaining activity, percent of control [%] [22]: 81.5% | 21c Remaining activity, percent of control [%] [23]: 94.4% | 21c Remaining activity, percent of control [%] [24]: 100.0% | 21c Remaining activity, percent of control [%] [25]: 96.6% | 21c Remaining activity, percent of control [%] [26]: 82.2% | 21c Remaining activity, percent of control [%] [27]: 100.8% | 21c Remaining activity, percent of control [%] [28]: 99.7% | 21c Remaining activity, percent of control [%] [29]: 92.4% | 21c Remaining activity, percent of control [%] [30]: 89.2% | 21c Remaining activity, percent of control [%] [31]: 96.2%
